Values quoted from earlier work as cited in patent US20090233947A1, “2,3-Substituted fused bicyclic pyrimidin-4(3H)-ones which modulating the function of the vanilloid -1 receptor (VR1)” (priority 2005, published 2009).

Molecular target: VR1 (Rattus norvegicus, UniProt O35433)
Settings: Wahl et al., Mol. Pharmacol., 59:9, 2001

Chain of VR1 (O35433 whole entry): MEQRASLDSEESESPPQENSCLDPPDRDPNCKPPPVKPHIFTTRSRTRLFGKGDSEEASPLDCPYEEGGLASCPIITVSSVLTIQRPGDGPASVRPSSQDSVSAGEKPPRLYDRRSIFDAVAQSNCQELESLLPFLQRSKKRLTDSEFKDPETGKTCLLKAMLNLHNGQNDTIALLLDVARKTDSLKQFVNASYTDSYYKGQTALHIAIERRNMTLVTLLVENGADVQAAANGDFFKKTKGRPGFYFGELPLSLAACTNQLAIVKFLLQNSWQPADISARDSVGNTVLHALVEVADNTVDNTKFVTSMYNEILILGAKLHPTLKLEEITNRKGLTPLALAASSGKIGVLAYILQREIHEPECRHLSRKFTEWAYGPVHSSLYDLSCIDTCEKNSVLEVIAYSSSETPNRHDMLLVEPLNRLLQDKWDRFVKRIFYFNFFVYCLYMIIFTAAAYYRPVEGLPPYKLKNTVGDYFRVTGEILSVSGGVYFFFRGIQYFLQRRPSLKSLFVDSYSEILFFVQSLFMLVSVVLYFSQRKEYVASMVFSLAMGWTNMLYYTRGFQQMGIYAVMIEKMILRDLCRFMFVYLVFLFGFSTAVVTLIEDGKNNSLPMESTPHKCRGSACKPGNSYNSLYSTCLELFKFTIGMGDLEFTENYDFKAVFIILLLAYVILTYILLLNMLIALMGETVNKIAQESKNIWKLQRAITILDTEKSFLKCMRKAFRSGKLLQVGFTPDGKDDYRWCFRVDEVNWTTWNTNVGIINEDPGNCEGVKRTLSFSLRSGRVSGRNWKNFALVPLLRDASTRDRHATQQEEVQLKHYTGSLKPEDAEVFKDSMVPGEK

C=C(C)[C@]12C[C@@H](C)[C@@]34O[C@](Cc5ccccc5)(O[C@@H]1[C@@H]3C=C(COC(=O)Cc1cc(I)c(O)c(OC)c1)C[C@]1(O)C(=O)C(C)=C[C@@H]41)O2 [iodo-resiniferatoxin]
antagonist of VR1: nanomolar antagonist
